Measurements as given in ChEMBL document CHEMBL1152829, “2,3-Disubstituted 8-arylamino-3H-imidazo[4,5-g]quinazolines: a novel class of antitumor agents” (Eur J Med Chem, 2009).
pIC50: −log10 of the molar value.

Key:
[1] = tested on: K562; experiment: Cytotoxicity against human K562 cells after 96 hrs by MTT assay; type: functional, cell-based; details: K562, 96 h
[2] = tested on: MOLT-4; experiment: Cytotoxicity against human MOLT4 cells after 96 hrs by MTT assay; type: functional, cell-based; details: MOLT-4, 96 h
[3] = tested on: PC-3; experiment: Cytotoxicity against human PC3 cells after 96 hrs by MTT assay; type: functional, cell-based; details: PC-3, 96 h
[4] = tested on: A549; experiment: Cytotoxicity against human A549 cells after 96 hrs by MTT assay; type: functional, cell-based; details: A549, 96 h
[5] = tested on: MDA-MB-231; experiment: Cytotoxicity against human MDA-MB-231 cells after 96 hrs by MTT assay; type: functional, cell-based; details: MDA-MB-231, 96 h
[6] = tested on: A549 (Homo sapiens); experiment: Cell cycle arrest in human A549 cells assessed as accumulation at G0/G1 phase at 10 umol/L after 24 hrs by FACS relative to untreated control
[7] = tested on: A549 (Homo sapiens); experiment: Cell cycle arrest in human A549 cells assessed as accumulation at S phase at 10 umol/L after 24 hrs by FACS relative to untreated control
[8] = tested on: A549 (Homo sapiens); experiment: Cell cycle arrest in human A549 cells assessed as accumulation at G2/M phase at 10 umol/L after 24 hrs by FACS relative to untreated control

`CC(C)c1nc2cc3c(Nc4ccccc4)ncnc3cc2n1C1CCCCC1` was tested, and the pIC50 [1] was 4.76, the pIC50 [2] was 5.55 and the pIC50 [3] was 4.61. The pIC50 [4] was 4.66 and the pIC50 [5] was < 4.00.

Compound `CCCCn1c(C(C)C)nc2cc3c(Nc4ccc(F)cc4)ncnc3cc21` has a pIC50 [1] of 5.26, a pIC50 [2] of 4.94 and an Activity [6] of 86.28%. The “percent of cells in S phase” value [7] was 10.73%, the pIC50 [3] was 5.01 and the pIC50 [4] was 5.37. The pIC50 [5] was 4.70 and the “Percentage of cells in G2/M phase” value [8] was 2.99%.

`CCCc1nc2cc3c(Nc4ccc(OC)c(OC)c4)ncnc3cc2n1CCCOC` gave a pIC50 [1] of 4.84, a pIC50 [2] of 4.96 and a pIC50 [3] of 4.61. The pIC50 [4] was 4.94 and the pIC50 [5] was 4.69.

With `CCOCCCn1c(Cc2ccccc2)nc2cc3c(Nc4ccc(OC)cc4)ncnc3cc21` the pIC50 [1] was 4.89, the pIC50 [2] was < 4.00 and the pIC50 [3] was < 4.00. For the same compound, the pIC50 [4] was 4.66 and the pIC50 [5] was 4.81.

In the case of `CCCCn1c(C(C)C)nc2cc3c(Nc4ccc(C)cc4)ncnc3cc21`, the pIC50 [1] was < 4.00, the pIC50 [2] was < 4.00 and the pIC50 [3] was 4.61. The pIC50 [4] was 4.92 and the pIC50 [5] was 4.97.

With `CCOCCCn1c(C(C)C)nc2cc3c(Nc4ccc(OC)cc4)ncnc3cc21` the pIC50 [1] was 5.29, the pIC50 [2] was < 4.00 and the Activity [6] was 80.38%. The “percent of cells in S phase” value [7] was 16.22%, the pIC50 [3] was < 4.00 and the pIC50 [4] was 5.34. The pIC50 [5] was < 4.00 and the “Percentage of cells in G2/M phase” value [8] was 3.4%.

In the case of `COc1ccc(Nc2ncnc3cc4c(cc23)nc(C(C)C)n4C2CCCCC2)cc1`, the pIC50 [1] was 4.71, the pIC50 [2] was 5.11 and the pIC50 [3] was 4.64. It also gave a pIC50 [4] of 5.14 and a pIC50 [5] of 4.68.

With `CCCCCCc1nc2cc3c(Nc4ccc(OC)cc4)ncnc3cc2n1CCCOCC` the pIC50 [1] was 4.39, the pIC50 [2] was < 4.00 and the pIC50 [3] was < 4.00. For the same compound, the pIC50 [4] was 4.41 and the pIC50 [5] was < 4.00.

With `CCCCn1c(C(C)C)nc2cc3c(Nc4ccc(OC)cc4)ncnc3cc21` the pIC50 [1] was < 4.00, the pIC50 [2] was 4.94 and the pIC50 [3] was 4.72. The pIC50 [4] was 5.08 and the pIC50 [5] was < 4.00.

For `COCCCn1c(C(C)C)nc2cc3c(Nc4ccc(OC)cc4)ncnc3cc21`, the pIC50 [1] was < 4.00, the pIC50 [2] was < 4.00 and the pIC50 [3] was < 4.00. The pIC50 [4] was 4.80 and the pIC50 [5] was < 4.00.

For `COc1cc2ncnc(Nc3ccc(F)c(Cl)c3)c2cc1OCCCN1CCOCC1` [GEFITINIB], the Activity [6] was 76.12%, the “percent of cells in S phase” value [7] was 19.24% and the “Percentage of cells in G2/M phase” value [8] was 4.64%.

`CCCc1nc2cc3c(Nc4ccc(OC)cc4)ncnc3cc2n1CCCOCC` was tested, and the pIC50 [1] was < 4.00, the pIC50 [2] was < 4.00 and the pIC50 [3] was < 4.00. The pIC50 [4] was 4.74 and the pIC50 [5] was < 4.00.

In the case of `CCOCCCn1c(CC)nc2cc3c(Nc4ccc(OC)cc4)ncnc3cc21`, the pIC50 [1] was < 4.00, the pIC50 [2] was < 4.00 and the pIC50 [3] was < 4.00. For the same compound, the pIC50 [4] was 5.22 and the pIC50 [5] was < 4.00.

`CCOCCCn1c(CC(C)C)nc2cc3c(Nc4ccc(OC)cc4)ncnc3cc21` was tested, and the pIC50 [1] was 4.84, the pIC50 [2] was < 4.00 and the Activity [6] was 81.47%. The “percent of cells in S phase” value [7] was 15.41%, the pIC50 [3] was < 4.00 and the pIC50 [4] was 5.55. The pIC50 [5] was < 4.00 and the “Percentage of cells in G2/M phase” value [8] was 3.12%.

In the case of `COc1ccc(Nc2ncnc3cc4c(cc23)nc(C(C)C)n4C(C)C)cc1`, the pIC50 [1] was < 4.00, the pIC50 [2] was < 4.00 and the pIC50 [3] was < 4.00. For the same compound, the pIC50 [4] was 5.20 and the pIC50 [5] was 4.45.

With `CCCCn1c(C(C)C)nc2cc3c(Nc4ccc(OC)c(OC)c4)ncnc3cc21` the pIC50 [1] was 4.73, the pIC50 [2] was 5.18 and the pIC50 [3] was < 4.00. The pIC50 [4] was 5.25 and the pIC50 [5] was 4.70.
